Measured values reported in patent publication US8785614B2, “Aberrantly methylated genes in pancreatic cancer” (The Johns Hopkins University, priority 2003, dated 2014).
Where two headings read alike, the source gives them in different places.

System: four pancreatic cancer cell lines (AsPC1, Hs766T, MiaPaCa2, Panc1)
Format: cell-based, human
From the text: These include a large panel of novel targets for silencing by histone deacetylation including several known tumor suppressor genes or cell cycle-regulatory genes (ING1, p57KIP2, CHES1, CHFR, GADD45B, and others).

## CC(/C=C/C(=O)NO)=C\[C@@H](C)C(=O)c1ccc(N(C)C)cc1 [TSA, trichostatin A]
  changes in phenotypes during the treatment period: did not result in apparent changes in their phenotypes
ANGPT2
  Induced by TSA alone?: No
BARD1
  Induced by TSA alone?: No
BIK
  Induced by TSA alone?: Yes
BNIP3
  Induced by TSA alone?: Yes
BNIP3 (Table 3)
  Induced by TSA alone?: Yes
BST2
  Induced by TSA alone?: No
BST2 (Table 3)
  Induced by TSA alone?: No
CACNA1G
  Induced by TSA alone?: Yes
CASP5
  Induced by TSA alone?: No
CCNA1
  Induced by TSA alone?: No
CCNE2
  Induced by TSA alone?: No
CDC25A
  Induced by TSA alone?: No
CDH3
  Induced by TSA alone?: No
CDKN1A (p21)
  Induced by TSA alone?: No
CDKN1C
  Induced by TSA alone?: Yes
CDKN2A (p16)
  Induced by TSA alone?: No
CLDN5
  Induced by TSA alone?: No
CLDN7
  Induced by TSA alone?: No
CRIP 1
  Induced by TSA alone?: Yes
CRLF1
  Induced by TSA alone?: Yes
CSF1
  Induced by TSA alone?: Yes
CSF3
  Induced by TSA alone?: No
Cdc42 effector protein 2
  Induced by TSA alone?: No
DAPK2
  Induced by TSA alone?: No
DAZL
  Induced by TSA alone?: Yes
DEAD box RNA helicase (VASA)
  Induced by TSA alone?: No
DR3
  Induced by TSA alone?: No
FOXE1
  Induced by TSA alone?: No
GAGE1
  Induced by TSA alone?: Yes
GAGE2
  Induced by TSA alone?: Yes
GAGE3
  Induced by TSA alone?: Yes
GAGE4
  Induced by TSA alone?: Yes
GAGE6
  Induced by TSA alone?: Yes
GAGE7
  Induced by TSA alone?: Yes
GAGE7B
  Induced by TSA alone?: Yes
GAS1
  Induced by TSA alone?: No
HOXA1
  Induced by TSA alone?: No
HSPA1A
  Induced by TSA alone?: Yes
IGF2
  Induced by TSA alone?: No
IL1R1
  Induced by TSA alone?: No
ISG20
  Induced by TSA alone?: No
ITM3
  Induced by TSA alone?: Yes
JPH3
  Induced by TSA alone?: No
KLK10
  Induced by TSA alone?: No
KRT17
  Induced by TSA alone?: No
LDOC1
  Induced by TSA alone?: No
LHX1
  Induced by TSA alone?: No
LHX2
  Induced by TSA alone?: No
LIPC
  Induced by TSA alone?: No
MAGE1
  Induced by TSA alone?: Yes
MAGEC1
  Induced by TSA alone?: Yes
MATN1
  Induced by TSA alone?: Yes
MLH1
  Induced by TSA alone?: Yes
NEFH
  Induced by TSA alone?: Yes
NK4
  Induced by TSA alone?: Yes
NPTX2
  Induced by TSA alone?: Yes
PAX6
  Induced by TSA alone?: No
PAX6 (Table 3)
  Induced by TSA alone?: No
PDYN
  Induced by TSA alone?: No
PIG11 (Table 3)
  Induced by TSA alone?: No
PLAT
  Induced by TSA alone?: No
PLEK2
  Induced by TSA alone?: No
PRG1
  Induced by TSA alone?: Yes
S100A2
  Induced by TSA alone?: No
S100P
  Induced by TSA alone?: No
SALL1
  Induced by TSA alone?: No
SARP2
  Induced by TSA alone?: No
SARP2 (Table 3)
  Induced by TSA alone?: No
SGCE
  Induced by TSA alone?: Yes
SMARCA1
  Induced by TSA alone?: No
SPANXC
  Induced by TSA alone?: Yes
ST14
  Induced by TSA alone?: Yes
STAT3
  Induced by TSA alone?: Yes
TERT
  Induced by TSA alone?: No
TIMP3
  Induced by TSA alone?: No
TJP2
  Induced by TSA alone?: No
TNF
  Induced by TSA alone?: No
TSA alone
  number of the 11 genes with aberrantly methylated CpG islands whose expression was induced: 4 genes
UCHL1
  Induced by TSA alone?: Yes
UCHL1 (Table 3)
  Induced by TSA alone?: Yes
WISP2
  Induced by TSA alone?: No
WIT-1
  Induced by TSA alone?: No
WNT7A
  Induced by TSA alone?: Yes
XAGE-1
  Induced by TSA alone?: Yes
XAGE-1 (Table 3)
  Induced by TSA alone?: Yes
activity-regulated cytoskeleton-associated protein (APC)
  Induced by TSA alone?: Yes
aik3
  Induced by TSA alone?: Yes
Basic fibroblast growth factor (FGF)
  Induced by TSA alone?: Yes
Cytovillin 2 (VIL2, ezrin)
  Induced by TSA alone?: No
Granulocytemacrophage colony-stimulating factor (M11734)
  Induced by TSA alone?: Yes
interferon, alpha-inducible protein (NM_022873)
  Induced by TSA alone?: Yes
Junction adhesion molecule (AF154005)
  Induced by TSA alone?: Yes
Matrix metalloproteinase 8 (MMP3)
  Induced by TSA alone?: No
nucleotide-binding site protein 1 (AF298547)
  Induced by TSA alone?: Yes
p53-induced protein (PIGII)
  Induced by TSA alone?: No
reprimo
  Induced by TSA alone?: No
Stratifin (14-3-3 sigma)
  Induced by TSA alone?: Yes
Stromal antigen 3 (STAG5)
  Induced by TSA alone?: Yes
Synovial sarcoma, X breakpoint 2 (AF257500)
  Induced by TSA alone?: Yes
testin
  Induced by TSA alone?: Yes
transketolase-like protein (X91817)
  Induced by TSA alone?: Yes
